Several values for one entry are separate records, joined by “and”; a condition that tells them apart may be missing. Equal values may be shown once.
Legend:
[1] = MicroPET studies in the brain of nonhuman primate; assay type: in vivo; details: male adult cynomolgus macaca
Procedure: 9.93 mCi of [^18F]TZ61-44 was injected into a male adult cynomolgus macaca (9.25 Kg) 10.57 mCi of [^11C]TZ55-107 was injected into was injected into a male adult cynomolgus macaca (9.40 Kg) A simplified reference tissue model (SRTM) and spatially-constraint linear regression algorithm was used to generate R1 and DVR images (FIGS. 18A and 18B).
FIGS. 19A and 19B graphically depict the uptake of labeled TZ55-107 and TZ61-44 in the animals. [^18F]TZ61-44 had highest cortical uptake (SUV) of ˜3.48 at 4 min and the uptake ratio at 4 min versus 120 min reached ˜4.2 (FIG. 19A); [^11C]TZ55-107 had highest cortical uptake of ˜6.40 at 4 min, and the uptake ratio at 4 min versus 120 min reached ˜6.30 (FIG. 19B).

Experimental Log P = assay type: physicochemical
[2] = molecular target: Banner PD-seeded α-synuclein fibrils (Homo sapiens (Human), UniProt P37840); experiment: Homologous competition radioligand binding assay, PD-seeded fibrils
Procedure: The equilibrium dissociation constant (Kd) for a series of compounds was determined using direct radioactive competitive binding assays (homologous or heterologous) with either recombinant α-synuclein fibrils or brain tissue homogenates from AD cases.
Recombinant protein was produced in E. coli using protocols based on previously described methods for α-synuclein [Giasson, B. I., et al., “Mutant and wild type human alpha-synucleins assemble into elongated filaments with distinct morphologies in vitro,” 1999, J Biol. Chem., 274:7619-7622; Huang, C., et al., “A new method for purification of recombinant human alpha-synuclein in Escherichia coli,” 2005, Protein Expr Purif, 42:173-177; Yu, L., et al, “Synthesis and in vitro evaluation of á-synuclein ligands,” 2012, Bioorg. Med. Chem., 20:4625-4634] and tau [Li, W., et al., “Characterization of two VQIXXK motifs for tau fibrillization in vitro,” 2006, Biochemistry, 45:15692-15701]. BL21(DE3)RIL E. coli were transformed with a pRK172 bacterial expression plasmid containing the human α-synuclein coding sequence. […]. Overnight cultures were centrifuged at 3,900×g for 10 min at 25° C. and the bacterial pellets were resuspended by gentle vortexing in 20 ml osmotic shock buffer (30 mM Tris-HCl, 2 mM EDTA, 40% Sucrose, pH 7.2) and then incubated at room temperature for 10 min. The cell suspension was then centrifuged at 8,000×g for 10 min at 25° C. and the pellet was resuspended in 22.5 ml cold H2O before adding 9.4 μl 2 M MgCl2 to each tube. The suspension was incubated on ice for 3 min prior to centrifugation at 20,000×g for 15 min at 4° C. After the supernatant was transferred to a fresh tube, streptomycin was added to a final concentration of 10 mg/ml and centrifuged at 20,000×g for 15 min at 4° C. The supernatant from this step was collected and dithiothreitol (DTT) and Tris-HCl pH 8.0 were added to final concentrations of 1 mM and 20 mM respectively, before boiling for 10 min to precipitate heat-sensitive proteins, which were pelleted at 20,000×g for 15 min at 4° C. The supernatant was collected and filtered through a 0.45 μm surfactant-free cellulose acetate filter (Corning) before loading onto a 1 ml DEAE Sepharose column equilibrated in 20 mM Tris-HCl pH 8.0, 1 mM EDTA, and 1 mM DTT. The DEAE column was washed with 20 mM Tris-HCl pH 8.0, 1 mM EDTA, 1 mM DTT before eluting α-synuclein protein in 20 mM Tris-HCl pH 8.0 buffer with 1 mM EDTA, 1 mM DTT and 0.3 M NaCl. Purified α-synuclein protein was dialyzed overnight in 10 mM Tris-HCl pH 7.6, 50 mM NaCl, 1 mM DTT.
Purified recombinant α-synuclein monomer (2 mg/ml) was incubated in 20 mM Tris-HCl, pH 8.0, 100 mM NaCl for 72 h at 37 C with shaking at 1000 rpm in an Eppendorf Thermomixer. […] The concentration of α-synuclein monomer in the supernatant was determined in a BCA protein assay according to the manufacturer's instructions, using a bovine serum albumin (BSA) standard curve. The measured decrease in α-synuclein monomer concentration was used to determine the concentration of fibrils in the 72 h fibril reaction mixture. […]
These direct binding assays used a fixed concentration of either fibrils or PD/AD tissue and the radioligand (e.g., [^18F]28) and varying concentration ranges of corresponding homologous non-radiolabeled standard reference compound. […] Reactions were incubated at 37° C. for 1 h before quantifying bound radioligand. […]

highest cortical uptake (SUV) ([1]; brain cortex, at 4 min): ~3.48 SUV | uptake ratio at 4 min versus 120 min ([1]; brain cortex): ~4.2 | logP (Experimental Log P): 1.97 ± 0.4 | Kd ([2]; 25 nM Banner PD-seeded fibrils): 5.4 nM and 9.7 nM and 12 nM and 25 nM and 26 nM | Kd ([2]; 75 nM Banner PD-seeded fibrils): 30 nM
SMILES: COc1ccc(Nc2ccc3cc(OCCF)ccc3n2)cn1 [TZ61-44]
blood brain barrier penetration [1]: able to penetrate the blood brain barrier
